From PubChem BioAssay (NCI)
Values joined by “and” are separate entries in the source; they are usually repeats but may differ in a detail not shown here. Equal entries are not always repeated.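 Step 1: Grow cells in 96-well plates. Step 2: Expose to compound for 48 hours at 5 concentrations. Step 3: Interpolate endpoints linearly; if unreached, use highest concentration. GI50 is the concentration that inhibits growth by half. Definition used: TGI = concentration required for complete inhibition of growth.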

Columns and labels:
Test in all cases: DTP human tumour cell line panel, 48 h
SK-MEL-28 melanoma = tested on: SK-MEL-28 melanoma
SNB-75 CNS = tested on: SNB-75 CNS
HT29 colon = tested on: HT29 colon
IGROV1 ovarian = tested on: IGROV1 ovarian
SK-OV-3 ovarian = tested on: SK-OV-3 ovarian
BT-549 breast = tested on: BT-549 breast
HS 578T breast = tested on: HS 578T breast
SW-620 colon = tested on: SW-620 colon
UACC-62 melanoma = tested on: UACC-62 melanoma
M14 melanoma = tested on: M14 melanoma

SMILES | GI50 (SK-MEL-28 melanoma) | TGI (SK-MEL-28 melanoma) | GI50 (SNB-75 CNS) | TGI (SNB-75 CNS) | GI50 (HT29 colon) | TGI (HT29 colon) | GI50 (IGROV1 ovarian) | TGI (IGROV1 ovarian) | GI50 (SK-OV-3 ovarian) | TGI (SK-OV-3 ovarian) | GI50 (BT-549 breast) | TGI (BT-549 breast) | GI50 (HS 578T breast) | TGI (HS 578T breast) | GI50 (SW-620 colon) | TGI (SW-620 colon) | GI50 (UACC-62 melanoma) | TGI (UACC-62 melanoma) | GI50 (M14 melanoma) | TGI (M14 melanoma)
O=C(/C=C/C12c3ccccc3C(c3ccccc31)C1C(=O)NC(=O)C12)c1ccc(F)cc1 (configuration not stated) | 1.85 µM | 3.39 µM | 1.39 µM | 2.92 µM | 2.34 µM | 5.21 µM | 2.09 µM | 5.9 µM | 2.79 µM | 8.03 µM | 1.69 µM | 3.42 µM | 2.28 µM | 7.84 µM | 2.12 µM | 4.59 µM | 1.68 µM | 3.48 µM | 1.92 µM | 3.96 µM
CC(C(N)C(=O)NC(C(=O)O)C1OC(n2ccc(=O)[nH]c2=O)C(O)C1O)C(O)c1ccc(O)cn1 (configuration not stated) |  | > 100 µM |  | > 100 µM |  | > 100 µM |  | > 100 µM |  |  |  | > 100 µM |  | > 100 µM |  | > 100 µM |  | > 100 µM |  | > 100 µM
O=C1C=CC(=O)N1c1cccc(N2C(=O)C=CC2=O)c1 | 1.95 µM | 3.78 µM | 4.71 µM | 18.3 µM | 2.3 µM | 4.94 µM | 2.38 µM | 5.52 µM | 18.2 µM | 32.1 µM | 7.51 µM | 20.2 µM | 2.17 µM | 5.73 µM | 1.99 µM | 3.87 µM | 2.48 µM | 9.46 µM | 1.85 µM | 3.71 µM
CC1=C(C(=O)Nc2cc(Cl)c3[nH]ncc3c2)C(c2ccc(C(F)(F)F)cc2)CC(=O)N1 (configuration not stated) | > 25 µM | > 25 µM | 3.13 µM | > 25 µM | > 25 µM | > 25 µM | > 25 µM | > 25 µM | > 25 µM | > 25 µM | 5.07 µM | > 25 µM | 0.898 µM | > 25 µM | > 25 µM | > 25 µM | 19 µM | > 25 µM | > 25 µM | > 25 µM
COc1cc2nccc(Oc3ccc(NC(=O)Nc4cc(C)on4)c(Cl)c3)c2cc1OC | 3.76 µM and 4.31 µM | 19.3 µM and > 10 µM | 1.99 µM and 2.06 µM | 6.24 µM and > 10 µM | 3.01 µM and 2.78 µM | 15.5 µM and > 10 µM | 2.51 µM and 2.85 µM | 8.36 µM and > 10 µM | 4.16 µM and 3.57 µM | 26.5 µM and > 10 µM | 4.16 µM and 4.99 µM | 13.4 µM and > 10 µM | 1.48 µM and 1.54 µM | 5.78 µM and > 10 µM | 3.11 µM and 4.09 µM | 18.4 µM and > 10 µM | 2.12 µM and 1.82 µM | 16.4 µM and > 10 µM | 2.55 µM and 3.05 µM | 7.83 µM and > 10 µM
Cc1cc(N2CCOCC2)nc(N(CCCNc2ccnc3cc(Cl)ccc23)Cc2ccco2)n1 | 2.29 µM | 6.66 µM | 2.29 µM | 9.78 µM | 1.83 µM | 8.57 µM | 2.18 µM | 11.3 µM | 2.84 µM | 10.7 µM | 2.3 µM | 7.95 µM | 4.03 µM | 25.7 µM | 2.73 µM | 11.5 µM | 3.49 µM | 12.5 µM | 1.86 µM | 4.22 µM
O=C1C2CCN(CC2)C1(CO)CO |  | 44.5 µM |  | > 81.8 µM |  | 73.7 µM |  | > 100 µM |  | > 100 µM |  | 41.7 µM |  | 70.6 µM |  | 36.3 µM |  | 42.1 µM |  | 38.8 µM
CN1CCN(c2ccc(NC(=O)c3cncnc3Nc3ccc(OCc4ccccn4)c(Cl)c3)cc2)CC1 | 0.749 µM | 1.64 µM | 4.58 µM | 9.23 µM | 0.948 µM | 4.49 µM | 3.13 µM | 9.18 µM | 4.79 µM | 11.2 µM | 5.18 µM | 11.1 µM | 4.17 µM | 13.5 µM | 1.14 µM | 4.63 µM | 0.695 µM | 1.42 µM | 0.65 µM | 1.4 µM
CC(=O)O[C@H](C[C@H](C(C)C)N(C)C(=O)[C@@H](NC(=O)[C@H]1CCCN1C)C(C)C)c1nc(C(=O)N[C@@H](Cc2ccccc2)C[C@H](C)C(=O)O)c(C)s1 | 0.00557 µM | > 16.7 µM | < 0.00167 µM | > 16.7 µM | < 0.00167 µM | > 16.7 µM | 0.00241 µM | > 16.7 µM | 0.00203 µM | > 16.7 µM | < 0.00167 µM | 0.151 µM | < 0.00167 µM | > 16.7 µM | < 0.00167 µM | > 16.7 µM | < 0.00167 µM | > 16.7 µM | < 0.00167 µM | > 16.7 µM
CCOC(=O)C#Cc1c(C(=O)OCC)nnn1Cc1ccc([N+](=O)[O-])cc1 | 3.03 µM | 10.2 µM | 6.29 µM | 20.5 µM |  |  | 11.9 µM | 28.5 µM | 21.9 µM | 51.1 µM | 5.07 µM | 17 µM | 19.4 µM | 61.4 µM | 1.85 µM | 3.79 µM | 1.83 µM | 4.42 µM | 2.97 µM | 9.13 µM
CC(=O)O[C@H]1[C@@H]2OC(=O)C(CSc3ccccc3)[C@@H]2C[C@H]2O[C@]2(C)CC/C=C(\C)CCC[C@@H]1C (some centres not stated) | 1.91 µM | 3.93 µM | 2.98 µM | 11.6 µM | 3.51 µM | 14.9 µM | 3.05 µM | 9.38 µM | 13.6 µM | 57 µM | 1.98 µM | 8.84 µM | 2.79 µM | 10.2 µM | 2.22 µM | 4.92 µM | 4.65 µM | 14.8 µM | 2.13 µM | 5.37 µM
CC(CN(C)C)Oc1ccccc1NC1=C(Cl)C(=O)C(Nc2ccccc2OC(C)CN(C)C)=C(Cl)C1=O (configuration not stated) | 1.5 µM | 2.87 µM | 1.44 µM | 3.01 µM | 0.179 µM | 0.423 µM | 0.58 µM | 1.88 µM | 2.29 µM | 5.43 µM | 1.62 µM | 2.98 µM | 1.8 µM | 4.53 µM | 0.175 µM | 0.357 µM | 1.55 µM | 3.05 µM | 1.38 µM | 2.83 µM
CN(CC(=O)Nc1nc2ccccc2[nH]1)S(=O)(=O)c1ccc(Cl)cc1 | > 100 µM | > 100 µM | 22.1 µM | 78.8 µM | > 100 µM | > 100 µM | 21 µM | > 100 µM | > 100 µM | > 100 µM | > 100 µM | > 100 µM | 65 µM | > 100 µM | > 100 µM | > 100 µM | > 100 µM | > 100 µM | > 100 µM | > 100 µM
